Source: patent US20050222253A1, “Anti-cancer nitro- and thia-fatty acids” (priority 1999, published 2005)
“Also recorded” adds a separate entry of the source.

Columns and labels:
5-LO = 5-LO (Solanum tuberosum, UniProt P37831); experiment: Effect on 5-LO catalysed oxidation of arachidonic acid; assay type: biochemical; settings: preliminary experiment, purified enzyme, result in words
Description: Based on this consideration, 5-LO, 12-LO and 15-LO catalysed oxidation of the nitro compounds (4a, 4b, 6a, 6b, 8a and 8b) was investigated. Each of the nitro compounds was treated with 15-LO in pH 9.0 buffer (or 5-LO in pH 6.3 buffer and 12-LO in pH 7.4 buffer), and the formation of 15-hydroperoxy derivatives (or 5-hydroperoxy or 12-hydroperoxy derivatives) over time was monitored by LW spectroscopy at 234 nm. […]

12-LO = target: T1, 12-LO (Sus scrofa, UniProt P16469); experiment: Effect on 12-LO catalysed oxidation of arachidonic acid; assay type: biochemical, porcine; settings: preliminary experiment, result in words
T1 construct: purchased Cayman Chemical Company
T1 sequence (P16469 1-663): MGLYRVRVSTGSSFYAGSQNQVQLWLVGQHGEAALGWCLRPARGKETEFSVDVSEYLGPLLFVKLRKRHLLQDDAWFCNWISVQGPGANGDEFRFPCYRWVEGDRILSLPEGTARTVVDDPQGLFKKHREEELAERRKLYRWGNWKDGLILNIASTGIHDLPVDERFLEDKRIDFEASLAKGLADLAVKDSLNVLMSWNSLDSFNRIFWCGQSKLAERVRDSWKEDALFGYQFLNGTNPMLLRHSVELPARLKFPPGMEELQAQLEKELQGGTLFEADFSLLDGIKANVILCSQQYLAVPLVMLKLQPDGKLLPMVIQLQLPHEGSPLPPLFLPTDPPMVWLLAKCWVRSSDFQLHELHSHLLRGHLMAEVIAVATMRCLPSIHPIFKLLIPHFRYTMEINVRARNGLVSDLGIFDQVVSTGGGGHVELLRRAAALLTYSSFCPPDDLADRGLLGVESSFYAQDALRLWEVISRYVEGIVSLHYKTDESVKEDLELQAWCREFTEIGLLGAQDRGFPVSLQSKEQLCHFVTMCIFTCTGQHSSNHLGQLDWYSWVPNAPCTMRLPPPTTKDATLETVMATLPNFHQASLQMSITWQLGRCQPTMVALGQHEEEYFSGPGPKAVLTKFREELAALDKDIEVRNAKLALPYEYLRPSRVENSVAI
Description: Based on this consideration, 5-LO, 12-LO and 15-LO catalysed oxidation of the nitro compounds (4a, 4b, 6a, 6b, 8a and 8b) was investigated. Each of the nitro compounds was treated with 15-LO in pH 9.0 buffer (or 5-LO in pH 6.3 buffer and 12-LO in pH 7.4 buffer), and the formation of 15-hydroperoxy derivatives (or 5-hydroperoxy or 12-hydroperoxy derivatives) over time was monitored by LW spectroscopy at 234 nm.
A number of Lx compounds were tested for anti 5-LOX and 12-LOX activities in the human breast cancer cell line, MCF-7. […] The ability of 5-LOX and 12-LOX to produce oxidated products of 20:4n-6 with a different absorption wavelength in the presence of nitroso-PUFA was examined and is shown in the progress curves in FIG. 6. […] Within cells, activation of 5-LOX is facilitated by 5-LOX activating protein (FLAP). Thus, in intact cells, Lx7 and Lx9 may be able to activate 5-LOX at lower concentrations than those required in the purified enzyme system shown in FIG. 6. […] By being able to activate 5-LOX and suppress 12-LOX, these compounds have the desired characteristics of anti-breast cancer agents as discussed previously.
15-LO was obtained from Sigma Chemical Company, and 12-LO from Cayman Chemical Company. Arachidonic acid 1, linolenyl alcohol 57a, gamma linolenyl alcohol 5b, arachidonyl alcohol 57c and docosahexaenyl alcohol 57d were purchased from Nu-Chek Prep. Inc. Elysian, Minn., USA. Other chemicals were commercially available from Aldrich Chemical Company.

DU145 cells = experiment: DU145 tumour cell survival (MTS cell proliferation assay); assay type: cell-based, human; settings: for Anti tumour effect on DU145 tumour cells: various concentrations and times (FIGS. 1, 2); for DU145 cell survival, screening test: 20 μM fatty acid, 24 hrs, MTS (FIG. 4)
Description: Lx compounds were tested for activity against two androgen insensitive prostate cancer tumour cell lines, DU145(liver metastases) and PC3(brain metastases). […] Survival was measured using the MTS cell proliferation assay.
Various concentrations for varying amounts of time of Lx compounds were added to either DU145 or PC3 tumour cells in culture. Viability/death of tumour cells was measured by a standard colourimetric assay. […] It is also evident from the results (FIG. 2) that the saturated nitro compound Lx1 (19:0-NO2) is not active and neither is MP2 (β-thia 23:0), a saturated […] fatty acid. […] In a further screening test, the human prostate cell line, DU145 cells (liver metastases), was treated for 24 hrs with 20 μM Fatty Acid and cell survival was measured using the MTS cell proliferation assay. This assay uses colourimetric measurement of substrate conversion to formazan which occurs only in the presence of NADH in a metabolically active cell. There was varied anti-tumour activity amongst the different types of PUFA.
(§1) DU145 cells were treated with PUFA and incubated for 24 h (for the proliferation assay), 4 h (for the caspase assay) and for 18 h (for PARP cleavage).
(§2) Proliferation was quantitated by MTS assay. Caspases 3 and 7 were assayed by a fluorometric assay using a […] substrate. PARP cleavage was measured by Western blots using an anti PARP antibody.

15-LO = target: T2, 15-LO (Glycine max, UniProt P08170); experiment: Effect on 15-LO catalysed oxidation of arachidonic acid; assay type: biochemical, soybean; settings: preliminary experiment, result in words
T2 construct: purchased Sigma Chemical Company
T2 sequence (P08170 1-839): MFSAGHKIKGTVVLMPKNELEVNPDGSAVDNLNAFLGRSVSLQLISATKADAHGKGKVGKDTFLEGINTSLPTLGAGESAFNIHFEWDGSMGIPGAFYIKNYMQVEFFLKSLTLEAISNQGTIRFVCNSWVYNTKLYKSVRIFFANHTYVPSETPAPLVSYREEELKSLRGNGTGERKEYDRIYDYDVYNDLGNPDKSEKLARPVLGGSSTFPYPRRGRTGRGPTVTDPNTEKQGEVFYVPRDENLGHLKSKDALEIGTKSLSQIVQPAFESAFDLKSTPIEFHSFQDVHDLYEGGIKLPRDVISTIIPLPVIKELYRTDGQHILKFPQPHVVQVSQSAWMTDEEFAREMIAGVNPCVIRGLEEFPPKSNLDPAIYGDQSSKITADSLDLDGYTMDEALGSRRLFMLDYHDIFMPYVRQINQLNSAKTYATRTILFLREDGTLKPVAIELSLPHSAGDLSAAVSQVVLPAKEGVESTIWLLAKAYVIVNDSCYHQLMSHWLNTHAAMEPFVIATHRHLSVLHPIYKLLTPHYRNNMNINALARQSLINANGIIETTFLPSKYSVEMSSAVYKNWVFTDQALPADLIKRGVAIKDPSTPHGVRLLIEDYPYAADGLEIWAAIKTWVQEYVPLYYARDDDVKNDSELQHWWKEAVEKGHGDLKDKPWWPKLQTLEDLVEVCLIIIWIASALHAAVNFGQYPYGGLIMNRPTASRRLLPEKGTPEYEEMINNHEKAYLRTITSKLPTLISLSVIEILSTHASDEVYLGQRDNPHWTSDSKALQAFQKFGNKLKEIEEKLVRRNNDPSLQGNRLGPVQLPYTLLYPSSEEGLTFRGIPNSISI

MCF-7 cells = experiment: Killing of MCF-7 breast cancer cells in vitro; assay type: cell-based, human; settings: in vitro (FIG. 7); compared with 20:4n-6 toxicity
From the text: While interference with 5-LOX or 12-LOX activity individually impacts on growth rates of human breast cancer MCF-7 cells^(55,56), the simultaneous modification of the activities of both enzymes at once may cause death. […] Lx4, a nitroso-compound with the same number of carbon atoms and degree of unsaturation as Lx9 but lacking a COOH group, was ineffective (FIG. 7).

Caspases 3 and 7 = experiment: Caspase 3 and 7 fluorometric assay in DU145 cells; assay type: cell-based, human
Description: as §1, §2

PARP = PARP cleavage by Western blot in DU145 cells; assay type: cell-based, human; settings: 18 h, anti PARP antibody (FIG. 5C)
Description: as §1, §2

5-LO, sequence (P37831 whole entry): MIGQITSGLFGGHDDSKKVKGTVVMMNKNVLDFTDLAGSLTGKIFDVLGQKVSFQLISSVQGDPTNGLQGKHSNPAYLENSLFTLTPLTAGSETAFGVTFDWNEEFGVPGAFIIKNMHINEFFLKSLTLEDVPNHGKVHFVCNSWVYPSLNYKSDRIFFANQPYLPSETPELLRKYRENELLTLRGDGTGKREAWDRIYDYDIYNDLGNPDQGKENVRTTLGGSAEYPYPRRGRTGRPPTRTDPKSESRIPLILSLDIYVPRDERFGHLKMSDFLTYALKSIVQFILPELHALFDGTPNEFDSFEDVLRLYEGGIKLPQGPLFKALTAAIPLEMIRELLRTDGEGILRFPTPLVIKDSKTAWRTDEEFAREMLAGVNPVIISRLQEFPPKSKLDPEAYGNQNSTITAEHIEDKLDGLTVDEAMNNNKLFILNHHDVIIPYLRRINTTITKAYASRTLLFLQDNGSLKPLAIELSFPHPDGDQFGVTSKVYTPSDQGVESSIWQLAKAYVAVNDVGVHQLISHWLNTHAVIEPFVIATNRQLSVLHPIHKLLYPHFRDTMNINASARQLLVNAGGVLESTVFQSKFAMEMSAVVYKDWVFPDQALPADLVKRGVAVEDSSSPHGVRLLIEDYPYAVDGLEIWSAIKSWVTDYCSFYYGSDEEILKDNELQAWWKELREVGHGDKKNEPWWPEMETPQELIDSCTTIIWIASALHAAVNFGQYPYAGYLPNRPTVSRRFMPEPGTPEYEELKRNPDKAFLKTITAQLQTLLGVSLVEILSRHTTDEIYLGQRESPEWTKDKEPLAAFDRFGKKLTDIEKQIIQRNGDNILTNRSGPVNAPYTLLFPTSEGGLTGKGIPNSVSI

CCCCCCCCCCCCCC[S+]([O-])CCC(=O)O (centres unmarked) [Compound 113, 3-(tetradecylsulfinyl) propionic acid] showed a melting point of 166 to 167 °C.

In the case of CCCCCCCCCCCCCCCCCC[N+](=O)[O-] [Lx1, 1-Nitrooctadecane], the “Effect on 5-LO catalysed oxidation of AA” value (5-LO) is reported as “Nil”, the “Effect on 12-LO catalysed oxidation of AA” value (12-LO) is reported as “Nil” and the “Anti tumour effect on DU145 tumour cells” value (DU145 cells) is reported as “not active”. The “Effect on 15-LO catalysed oxidation of AA” value (15-LO) was “Nil”.

In the case of CC/C=C\C/C=C\C/C=C\CCCCCCCC[N+](=O)[O-] [Lx2, (z,z,z)-1-Nitro-9,12,15-octadecatriene], the “Effect on 15-LO catalysed oxidation of AA” value (15-LO) is reported as “Nil”.

For CCCCC/C=C\C/C=C\C/C=C\CCCCC[N+](=O)[O-] [Lx3, (z,z,z)-1-Nitro-6,9,12-octadecatriene], the “Effect on 15-LO catalysed oxidation of AA” value (15-LO) was “Nil”.

In the case of CCCCC/C=C\C/C=C\C/C=C\C/C=C\CCCC[N+](=O)[O-] [Lx4, (all-z)-1-Nitro-5,8,11,14-eicosatetraene], the “Effect on 5-LO catalysed oxidation of AA” value (5-LO) is reported as “Nil”, the “Effect on 12-LO catalysed oxidation of AA” value (12-LO) is reported as “Nil” and the “Killing of MCF-7 tumour cells” value (MCF-7 cells) is reported as “ineffective”. For the same molecule, the “Effect on 15-LO catalysed oxidation of AA” value (15-LO) was “Nil”.

For CC/C=C\C/C=C\C/C=C\C/C=C\C/C=C\C/C=C\CCC[N+](=O)[O-] [Lx5, (all-z)-1-Nitro-4,7,10,13,16,19-docosahexaene], the “Effect on 15-LO catalysed oxidation of AA” value (15-LO) was “Nil”.

For CCCCCCCCCCCCCCCCCC(CCC(=O)O)[N+](=O)[O-] (centres unmarked) [Lx6, 4-Nitrohenicosanoic acid], the “Effect on 5-LO catalysed oxidation of AA” value (5-LO) was “Inhibitory”, the “Effect on 5-LO catalysed oxidation of AA” value (5-LO; listed as 4-nitrohenicosanoic acid) was “selective inhibitors” and the “Effect on 5-LO catalysed oxidation of AA” value (5-LO; listed as 6a) was “inhibiting 5-LO”. The “Effect on 12-LO catalysed oxidation of AA” value (12-LO) was “Activatory”, the “Killing of DU145 tumour cells” value (DU145 cells; 15 μM, after 24 hours of culture (FIG. 2)) was “killing of all the tumour cell population” and the “Anti tumour effect on DU145 tumour cells” value (DU145 cells) was “concentration and time related effects”. The “Effect on 15-LO catalysed oxidation of AA” value (15-LO) was “Activatory” and the “Effect on 15-LO catalysed oxidation of AA” value (15-LO; listed as 6a) was “not 15-LO”.

In the case of CCCCC/C=C\C/C=C\C/C=C\C/C=C\CCCC(CCC(=O)O)(CCC(=O)O)[N+](=O)[O-] [Lx9, 3-[(all-Z)-Nonadeca-4,7,10,13-tetraenyl]-3-nitropentane-1,5-dicarboxylic acid], the “Effect on 5-LO catalysed oxidation of AA” value (5-LO) is reported as “can activate 5-LOX; also recorded: Activatory”, the “Effect on 12-LO catalysed oxidation of AA” value (12-LO) is reported as “direct, potent and rapid inhibitor of 12-LOX; also recorded: Inhibitory” and the “Effect on 12-LO catalysed oxidation of AA” value (12-LO; listed as 3-(all-Z)-nonadeca-4,7,10,13-tetraenyl]-3-nitropentane-1,5-dicarboxylic acid) is reported as “selective inhibitors”. For the same molecule, the “Effect on 12-LO catalysed oxidation of AA” value (12-LO; listed as 8b) was “significant inhibitory effect”, the “Killing of MCF-7 tumour cells” value (MCF-7 cells) was “kill these tumour cells” and the “Effect on 15-LO catalysed oxidation of AA” value (15-LO) was “Nil”.

For CCCCC/C=C\C/C=C\C/C=C\C/C=C\CCCCOCC(=O)O [MP3], the “DU145 cell survival, screening test” value (DU145 cells) was “highly active”, the DU145 cell proliferation (DU145 cells; 24 h, MTS assay (FIG. 5A)) was “marked inhibition of cell proliferation” and the Activation of caspases (Caspases 3 and 7; DU145 cells, 4 h (FIG. 5B)) was “activation of caspases”. For the same molecule, the “Induction of apoptosis in DU145 cells” value (Caspases 3 and 7; concluded from caspase activation and PARP cleavage) was “induce apoptosis” and the PARP cleavage (PARP) was “cleavage of PARP”.

With CCC=CCC=CCC=CCC=CCC=CCC=CCCCOCC(=O)O [MP6] the “DU145 cell survival, screening test” value (DU145 cells) was “most active”.

In the case of CCCCC/C=C\C/C=C\C/C=C\C/C=C\CCCCSCC(=O)O [MP8, (all-Z)-(eicosa-5,8,11,14-tetraenylthio) acetic acid], the “DU145 cell survival, screening test” value (DU145 cells) is reported as “highly active”.

For CCCCC/C=C\C/C=C\C/C=C\CCCCCSCC(=O)O [MP9], the “DU145 cell survival, screening test” value (DU145 cells) was “most active”.

In the case of CCC=CCC=CCC=CCCCCCCCCSCC(=O)O [MP10], the “DU145 cell survival, screening test” value (DU145 cells) is reported as “most active”.

For CCCCC/C=C\C/C=C\C/C=C\CCCCCSCCC(=O)O [MP12], the “DU145 cell survival, screening test” value (DU145 cells) was “most active”.

For CC/C=C\C/C=C\C/C=C\CCCCCCCCSCCC(=O)O [MP13, 3-[(Z,Z,Z)-(octadeca-9,12,15-trienylthio)]propionic acid], the “DU145 cell survival, screening test” value (DU145 cells) was “highly active”.

With CC/C=C\C/C=C\C/C=C\C/C=C\C/C=C\C/C=C\CCC(=O)NCC(=O)O [PTS] the “DU145 cell survival, screening test” value (DU145 cells) was “some activity”.
